The text below walks through data of patent publication EP2420245A1, “Therapeutic use of agonists or antagonists of bradykinin receptor 1 or 2, for modulation collateral blood vessel growth” (MAX-DELBRÜCK-CENTRUM FÜR MOLEKULARE MEDIZIN, priority 2010, dated 2012).

Data set [1] relates to 3-vessel occlusion (3-VO) cerebral arteriogenesis model in rat. Put plainly: 3-vessel occlusion (3-VO) cerebral arteriogenesis model: collateral growth / diameter of the posterior cerebral artery (postmortem latex perfusion). It is filed as in vivo. To be noted: rat 3-VO model, antagonist treatment, 3 weeks post 3-VO (Figure 5). As to the method: Pharmacological modulation of arteriogenesis was analysed using a 3 vessel occlusion (3-VO) model for cerebral arteriogenesis in the rat (Occlusion of both vertebral arteries and one carotid artery). Upon occlusion of three of four blood-supplying arteries to the brain, blood flow is redistributed by the recruitment of collateral pathways such as the posterior cerebral artery to supply the hypoperfusion area with blood. The 3-VO model in the rat has been established since 2003 and is acknowledged as a hypoperfusion model for testing cerebral arteriogenesis (Busch, Buschmann et al. 2003). By using the 3-VO model, relevant therapeutic stimulation of arteriogenesis was shown for instance by the application of GM-CSF (Buschmann, Circulation 2003).
Either by inhibition or stimulation of the bradykinin receptor signalling pathways, arteriogenesis was determined and physiological parameters of the brain were tested.
The characterisation of arteriogenesis was carried out via measurement of the artery or blood vessel diameter (posterior cerebral artery - PCA) in addition to via a measurement of the cerebrovascular reactivity (perfusion reserves in the brain). Cerebrovascular anatomy was studied after maximal vasodilation by a modification of the postmortem latex perfusion method of Maeda et al (Maeda, Hata et al. 1998) .

The conditions of data set [2]: relative to the natural ligand Lys-desArg-bradykinin; cited from earlier work.

In the case of (Des-Arg^9, Leu^8)-bradykinin [H1960], the “arteriogenesis (collateral growth)” value in data set [1] is listed as “inhibited”.
For the compound `CNCC(=O)N[C@@H](CCCNC(=N)N)C(=O)N1CCC[C@H]1C(=O)N1CCC[C@H]1C(=O)NCC(=O)N[C@@H](Cc1ccccc1)C(=O)N[C@@H](CO)C(=O)N1CCC[C@H]1C(=O)N[C@H](Cc1ccccc1)C(=O)O` [R838, Sar-[D-Phe]des-Arg^9-bradykinin], in data set [2], the susceptibility toward proteolysis entry was “lower”.
